For one experiment, the target named is D(2) dopamine receptor (Rattus norvegicus, UniProt P61169). Briefly: Binding affinity for dopamine receptor D2 long expressed in Sf9 cells using [125I]IABN radioligand.
Experiment [1] concerns the target Sigma 2 receptor. The arrangement: species or system Rattus norvegicus, Liver, Membrane.
Another experiment addresses D(3) dopamine receptor (Rattus norvegicus, UniProt P19020). In words: biochemical.
In experiment [2] the target is Sigma 2 receptor. In words: Binding affinity for sigma-2 receptor measured on rat liver membranes using [3H]DTG as radioligand in the presence of (+)-pentazocine. The arrangement: species or system Membrane.

The record followed here is ChEMBL document CHEMBL1134687, “Synthesis and structure-activity relationships of naphthamides as dopamine D3 receptor ligands” (J Med Chem, 2001).

Chain of D(2) dopamine receptor (P61169 whole entry): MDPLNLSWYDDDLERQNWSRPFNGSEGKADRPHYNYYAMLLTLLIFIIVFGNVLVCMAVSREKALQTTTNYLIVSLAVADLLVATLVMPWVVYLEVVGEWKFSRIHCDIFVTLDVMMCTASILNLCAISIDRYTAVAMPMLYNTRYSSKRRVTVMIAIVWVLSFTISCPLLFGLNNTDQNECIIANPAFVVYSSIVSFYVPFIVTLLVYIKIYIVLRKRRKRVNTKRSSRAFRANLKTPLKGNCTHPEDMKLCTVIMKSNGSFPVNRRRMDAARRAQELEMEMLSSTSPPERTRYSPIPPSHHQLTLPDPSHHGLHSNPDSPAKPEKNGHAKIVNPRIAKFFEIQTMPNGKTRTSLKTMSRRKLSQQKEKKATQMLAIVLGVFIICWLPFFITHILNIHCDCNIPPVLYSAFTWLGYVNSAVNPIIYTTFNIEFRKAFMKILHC
Chain of D(3) dopamine receptor (P19020 whole entry): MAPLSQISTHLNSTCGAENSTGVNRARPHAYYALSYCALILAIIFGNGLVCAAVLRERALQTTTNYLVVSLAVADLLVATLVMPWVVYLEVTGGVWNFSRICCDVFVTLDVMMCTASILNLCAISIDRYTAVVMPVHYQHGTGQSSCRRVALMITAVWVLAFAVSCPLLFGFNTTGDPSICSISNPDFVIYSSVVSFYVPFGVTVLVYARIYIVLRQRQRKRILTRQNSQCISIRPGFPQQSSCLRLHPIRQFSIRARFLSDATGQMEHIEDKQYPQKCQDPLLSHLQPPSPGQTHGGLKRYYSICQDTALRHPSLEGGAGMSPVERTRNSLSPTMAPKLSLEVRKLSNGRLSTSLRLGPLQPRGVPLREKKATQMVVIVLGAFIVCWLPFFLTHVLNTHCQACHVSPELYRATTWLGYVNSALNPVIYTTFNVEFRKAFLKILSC
Description for D(3) dopamine receptor: Binding affinity for dopamine receptor D3 expressed in Sf9 cells using [125I]IABN the radioligand.

For orientation: Ki means the dissociation constant of the complex between target and ligand, obtained from inhibition or displacement. With `COc1c(C(=O)NC[C@@H]2CCCN2C2CCC2)cc(Br)c2ccccc12`, the affinity at D(2) dopamine receptor, expressed as Ki, was 11.8 nM.

As for `COc1c(C(=O)NC2CC3CCCC(C2)N3C2CCCCCC2)cc(Br)c2ccccc12` (stereo not drawn), the Ki stood at 152 nM at D(2) dopamine receptor, 7.9 nM on Sigma 2 receptor [1] and 41 nM on D(3) dopamine receptor.

As to `COc1c(C(=O)N[C@@H]2CCN(Cc3ccccc3)C2)cc(Br)c2ccccc12`, the Ki at D(2) dopamine receptor was determined as 12 nM; on Sigma 2 receptor [1], 20.8 nM; on D(3) dopamine receptor it was 1.6 nM.

Consider `COc1c(C(=O)N[C@@H]2CCN(C3C4CCCC3CCC4)C2)cc(Br)c2ccccc12` (stereo partly drawn), for which the results for the Ki on D(2) dopamine receptor, on Sigma 2 receptor [1] and on D(3) dopamine receptor were 75 nM, 279 nM and 13.2 nM, respectively.

On D(3) dopamine receptor, `COc1c(C(=O)NC[C@@H]2CCCN2C2CCCCCC2)cc(Br)c2ccccc12` came in with a Ki of 50 nM.

As to `COc1c(C(=O)NC[C@H]2CCCN2C2[C@H]3C[C@@H]4C[C@@H](C[C@H]2C4)C3)cc(Br)c2ccccc12` (stereo partly drawn), the Ki is 317 nM on Sigma 2 receptor [1] and 2.6 nM at D(3) dopamine receptor.

Turning to `COc1c(C(=O)NC[C@H]2CCCN2C2CCCC2)cc(Br)c2ccccc12`, the values for the Ki at D(2) dopamine receptor and on Sigma 2 receptor [1] were 157 nM and 35 nM, respectively.

Consider `COc1c(C(=O)N[C@H]2CCN(C3C4CCCC3CCC4)C2)cc(Br)c2ccccc12` (stereo partly drawn), for which the Ki was 132 nM at D(2) dopamine receptor, 137 nM on Sigma 2 receptor [1] and 12 nM on D(3) dopamine receptor.

Turning to `COc1c(C(=O)NC2CC3CCCC(C2)N3C2CCCCC2)cc(Br)c2ccccc12` (stereo not drawn), the Ki on D(2) dopamine receptor came out at 150 nM; at Sigma 2 receptor [1] it was 4.8 nM; on D(3) dopamine receptor it was 48 nM.

For `COc1c(C(=O)NC2CCN(C3[C@H]4C[C@@H]5C[C@@H](C[C@H]3C5)C4)CC2)cc(Br)c2ccccc12` (stereo partly drawn), the Ki on D(2) dopamine receptor amounted to 96 nM; at Sigma 2 receptor [1] it was 55 nM; on D(3) dopamine receptor, 92 nM.

With `COc1c(C(=O)N[C@H]2CCN(Cc3ccccc3)C2)cc(Br)c2ccccc12`, the Ki at D(2) dopamine receptor was 9.7 nM; on Sigma 2 receptor [1], 42 nM; on D(3) dopamine receptor, 1 nM.

As for `COc1c(C(=O)NC[C@H]2CCCN2C2CCC2)cc(Br)c2ccccc12`, at D(2) dopamine receptor, the Ki came out at 277 nM.

Take `COc1c(C(=O)N[C@@H]2CCN(C3[C@H]4C[C@@H]5C[C@@H](C[C@H]3C5)C4)C2)cc(Br)c2ccccc12` (stereo partly drawn): the Ki on Sigma 2 receptor [1] worked out at 21.4 nM; at D(3) dopamine receptor, 13 nM.

For the compound `COc1c(C(=O)NC2CCN(C3CCCCC3)CC2)cc(Br)c2ccccc12`, the results for the Ki on D(2) dopamine receptor, at Sigma 2 receptor [1] and at D(3) dopamine receptor were 94 nM, 2.1 nM and 430 nM, respectively.

For the compound `COc1c(C(=O)NC2CCN(Cc3ccccc3)CC2)cc(Br)c2ccccc12`, the Ki turned out to be 1.1 nM at D(3) dopamine receptor and 35 nM on Sigma 2 receptor [2].

On to `COc1c(C(=O)N[C@H]2CCN(C3[C@H]4C[C@@H]5C[C@@H](C[C@H]3C5)C4)C2)cc(Br)c2ccccc12` (stereo partly drawn), for which the figures for the Ki at Sigma 2 receptor [1] and on D(3) dopamine receptor were 70 nM and 0.4 nM, respectively.

As for `COc1c(C(=O)NC[C@H]2CCCN2C2CCCCCC2)cc(Br)c2ccccc12`, the affinity at D(3) dopamine receptor corresponds to a Ki of 2.4 nM.

Regarding `COc1c(C(=O)NC2CC3CCCC(C2)N3Cc2ccccc2)cc(Br)c2ccccc12` (stereo not drawn), the results for the Ki on D(2) dopamine receptor, on Sigma 2 receptor [1] and on D(3) dopamine receptor were 0.2 nM, 250 nM and 0.04 nM, respectively.

As for `COc1c(C(=O)NC[C@@H]2CCCN2C2CCCCC2)cc(Br)c2ccccc12`, the Ki on D(2) dopamine receptor was found to be 442 nM; on Sigma 2 receptor [1] it was 147 nM; on D(3) dopamine receptor, 334 nM.

In the case of `COc1c(C(=O)NC[C@H]2CCCN2C2CCCCC2)cc(Br)c2ccccc12`, the Ki on D(2) dopamine receptor is 58 nM; on Sigma 2 receptor [1] it was 25 nM; at D(3) dopamine receptor, 3.2 nM.

In the case of `COc1c(C(=O)NC2CCN(C3CCCCCC3)CC2)cc(Br)c2ccccc12`, the results for the Ki on D(2) dopamine receptor, on Sigma 2 receptor [1] and on D(3) dopamine receptor were 23 nM, 2.6 nM and 58 nM, respectively.

For `COc1c(C(=O)NC[C@H]2CCCN2Cc2ccccc2)cc(Br)c2ccccc12`, the Ki at D(2) dopamine receptor was determined as 11.4 nM; at Sigma 2 receptor [1] it was 207 nM; on D(3) dopamine receptor, 1.4 nM.

Turning to `COc1c(C(=O)NC[C@@H]2CCCN2C2[C@H]3C[C@@H]4C[C@@H](C[C@H]2C4)C3)cc(Br)c2ccccc12` (stereo partly drawn), the Ki turned out to be 141 nM at Sigma 2 receptor [1] and 68 nM on D(3) dopamine receptor.

Take `COc1c(C(=O)N[C@@H]2CCN(C3CCCCCC3)C2)cc(Br)c2ccccc12`: the Ki on D(2) dopamine receptor turned out to be 19 nM; at Sigma 2 receptor [1], 10 nM; on D(3) dopamine receptor it was 2.9 nM.

On to `COc1c(C(=O)NC2CCN(C3C4CCCC3CCC4)CC2)cc(Br)c2ccccc12` (stereo not drawn), for which the Ki stood at 771 nM on D(2) dopamine receptor, 2.4 nM at Sigma 2 receptor [1] and 1430 nM on D(3) dopamine receptor.

Turning to `COc1c(C(=O)NC[C@@H]2CCCN2Cc2ccccc2)cc(Br)c2ccccc12`, the Ki at D(2) dopamine receptor stood at 151 nM; at Sigma 2 receptor [1], 222 nM; at D(3) dopamine receptor, 14.6 nM.

`COc1c(C(=O)N[C@H]2CCN(C3CCCC3)C2)cc(Br)c2ccccc12`: the Ki was 19 nM on D(2) dopamine receptor, 27 nM at Sigma 2 receptor [1] and 2.5 nM at D(3) dopamine receptor.

With `COc1c(C(=O)N[C@@H]2CCN(C3CCCCC3)C2)cc(Br)c2ccccc12`, the figures for the inhibitory constant (Ki) at D(2) dopamine receptor, at Sigma 2 receptor [1] and at D(3) dopamine receptor were 74 nM, 9.8 nM and 5.7 nM, respectively.

For the compound `COc1c(C(=O)N[C@@H]2CCN(C3CCCC3)C2)cc(Br)c2ccccc12`, the figures for the Ki on D(2) dopamine receptor, at Sigma 2 receptor [1] and on D(3) dopamine receptor were 283 nM, 15.3 nM and 75 nM, respectively.

In the case of `COc1c(C(=O)NC2CCN(C3CCCC3)CC2)cc(Br)c2ccccc12`, the figures for the inhibition constant Ki on D(2) dopamine receptor, on Sigma 2 receptor [1] and at D(3) dopamine receptor were 210 nM, 6.8 nM and 899 nM, respectively.

Regarding `COc1c(C(=O)NC[C@@H]2CCCN2C2CCCC2)cc(Br)c2ccccc12`, the inhibition constant (Ki) on D(2) dopamine receptor amounted to 59 nM; at Sigma 2 receptor [1], 51 nM.

With `COc1c(C(=O)NC[C@@H]2CCCN2C2C3CCCC2CCC3)cc(Br)c2ccccc12` (stereo partly drawn), the Ki at D(2) dopamine receptor is 26 nM; at Sigma 2 receptor [1], 267 nM; at D(3) dopamine receptor, 7.5 nM.

Consider `COc1c(C(=O)N[C@H]2CCN(C3CCCCCC3)C2)cc(Br)c2ccccc12`, for which the Ki is 1.8 nM on D(2) dopamine receptor and 0.2 nM on D(3) dopamine receptor.

As for `COc1c(C(=O)N[C@H]2CCN(C3CCCCC3)C2)cc(Br)c2ccccc12`, the Ki on Sigma 2 receptor [1] turned out to be 25 nM; at D(3) dopamine receptor, 0.8 nM.

Turning to `COc1cc(I)cc(C(=O)NC2CC3CCCC(C2)N3Cc2ccccc2)c1OC` (stereo not drawn), the figures for the Ki on D(2) dopamine receptor, at Sigma 2 receptor [1] and on D(3) dopamine receptor were 0.05 nM, 419 nM and 0.04 nM, respectively.
